The subject of assay [1] is BRIN-BD11. The assay can be described thus: Insulinotropic activity in rat BRIN-BD11 cells assessed as increase in insulin secretion incubated for 20 mins by radioimmunoassay. In kind it is functional, cell-based. Conditions: DDE = dose-dependent effect.
Assay [2] has as its system Mus musculus. The assay can be described thus: Anti-diabesity activity against high fat diet-induced DIO C57BL/6 mouse model assessed as reduction in fat mass accumulation at 25 nmol/kg, sc administered for 2 weeks and measured on day 15 by NMR analysis. It is filed as functional, organism-based. To be noted: time 15.0 day.
In assay [3] the test system is Mus musculus. The assay can be described thus: Anti-diabesity activity against high fat diet-induced DIO C57BL/6 mouse model assessed as reduction in fasted blood glucose level at 25 nmol/kg, sc administered for 2 weeks and measured on day 15 by glucometer analysis. It is filed as functional, organism-based. To be noted: time 15.0 day.
Assay [4] deals with Mus musculus. The assay can be described thus: Anti-diabesity activity in DIO C57BL/6 mouse assessed as improvement in insulin sensitivity at 25 nmol/kg, sc administered every 2 days for 10 days by insulin tolerance test. It is filed as functional, organism-based. To be noted: time 10.0 day.
In assay [5] the test system is Mus musculus. In words: Anti-diabesity activity against high fat diet-induced DIO C57BL/6 mouse model assessed as improvement in glucose tolerance level at 25 nmol/kg, sc administered for 2 weeks and measured on day 16 by oral glucose tolerance test. To be noted: time 16.0 day. In kind it is functional, organism-based.
Assay [6] concerns Mus musculus. The assay can be described thus: Anti-diabesity activity against DIO C57BL/6 mouse assessed as reduction in cholesterol level in serum at 25 nmol/kg, sc administered every 2 days for 3 weeks. In kind it is functional, organism-based. To be noted: time 21.0 day.
Assay [7] has as its system Mus musculus. In words: Anti-diabesity activity in DIO C57BL/6 mouse assessed as reduction in body weight at 25 nmol/kg, sc administered every 2 days for 10 days. To be noted: C57BL/6, 240 h, time 10 day. It is filed as functional.
For assay [8], the system named is Mus musculus. In words: Anti-diabesity activity against DIO C57BL/6 mouse assessed as reduction in cumulative food intake at 25 nmol/kg, sc administered every 2 days for 3 weeks. In kind it is functional, organism-based. Conditions: time 21.0 day.
The test system of assay [9] is Mus musculus. In words: Hypoglycemic activity in db/db mouse assessed as reduction in glucose excursion at 25 nmol/kg, ip administered 30 min before oral glucose administration and measured upto 120 mins by OGTT. In kind it is functional, organism-based.
The subject of assay [10] is Mus musculus. In words: Anti-diabesity activity in DIO C57BL/6 mouse assessed as reduction in body weight at 100 nmol/kg, sc administered every 2 days for 10 days. To be noted: C57BL/6, 240 h, time 10 day. In kind it is functional.
The test system of assay [11] is Mus musculus. In words: Anorectic activity in ICR mouse assessed as decrease in food intake at 25 nmol/kg, ip and measured after 24 hrs. It is filed as functional, organism-based.
Assay [12] has as its system Mus musculus. In words: Anti-diabesity activity against DIO C57BL/6 mouse assessed as improvement in glucose tolerance at 25 nmol/kg, sc administered every 2 days for 3 weeks by OGTT. It is filed as functional, organism-based. To be noted: time 21.0 day.
In assay [13] the test system is Mus musculus. In words: Anti-diabesity activity against DIO C57BL/6 mouse assessed as reduction in fasted blood glucose level at 25 nmol/kg, sc administered every 2 days for 3 weeks. It is filed as functional, organism-based. Conditions: time 21.0 day.
Assay [14] has as its target T1, Cholecystokinin receptor type A (Homo sapiens, UniProt P32238).
T1 sequence (P32238 whole entry): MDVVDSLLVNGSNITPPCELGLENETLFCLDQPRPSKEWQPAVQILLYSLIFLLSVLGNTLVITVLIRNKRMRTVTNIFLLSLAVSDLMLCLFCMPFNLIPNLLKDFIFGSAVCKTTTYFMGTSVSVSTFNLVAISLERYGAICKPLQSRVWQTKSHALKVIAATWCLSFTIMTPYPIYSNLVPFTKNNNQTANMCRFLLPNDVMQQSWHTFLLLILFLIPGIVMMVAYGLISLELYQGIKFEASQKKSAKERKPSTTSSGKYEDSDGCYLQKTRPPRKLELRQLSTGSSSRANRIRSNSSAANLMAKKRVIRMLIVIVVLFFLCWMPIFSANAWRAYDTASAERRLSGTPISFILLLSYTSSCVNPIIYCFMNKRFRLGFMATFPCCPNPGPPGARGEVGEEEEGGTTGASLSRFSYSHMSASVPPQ
The assay can be described thus: Agonist activity at human CCK1R expressed in HEK293 cells assessed as ERK1/2 phosphorylation incubated for 5 mins by AlphaScreen assay. It is filed as functional, cell-based. (In Alpha technology, singlet oxygen from a donor bead excites a nearby acceptor bead.)

Assay [15] has as its system Mus musculus. The assay can be described thus: Anti-diabesity activity in DIO C57BL/6 mouse assessed as reduction in body weight at 10 nmol/kg, sc administered every 2 days for 10 days. Conditions: C57BL/6, 240 h, time 10 day. It is filed as functional.
The test system of assay [16] is Mus musculus. The assay can be described thus: Insulinotropic activity in db/db mouse assessed as elevation of plasma insulin level at 25 nmol/kg, ip administered 30 min before oral glucose administration and measured upto 60 mins by ELISA. Conditions: time <= 90.0 min. It is filed as functional, organism-based. In general terms: ELISA stands for enzyme-linked immunosorbent assay.

Assay [17] has as its system Mus musculus. The assay can be described thus: Hypoglycemic activity in db/db mouse assessed as improvement in glucose tolerance at 25 nmol/kg, ip administered 30 min before oral glucose administration and measured upto 120 mins by OGTT. In kind it is functional, organism-based.
The test system of assay [18] is Mus musculus. The assay can be described thus: Anti-diabesity activity against DIO C57BL/6 mouse assessed as reduction in triglycerides level in serum at 25 nmol/kg, sc administered every 2 days for 3 weeks. It is filed as functional, organism-based. To be noted: time 21.0 day.
Assay [19] concerns Mus musculus. The assay can be described thus: Anti-diabesity activity against DIO C57BL/6 mouse assessed as decrease in fat mass at 25 nmol/kg, sc administered every 2 days for 3 weeks. In kind it is functional, organism-based. Conditions: time 21.0 day.
The subject of assay [20] is Mus musculus. The assay can be described thus: Anti-diabesity activity against high fat diet-induced DIO C57BL/6 mouse model assessed as reduction in food intake at 25 nmol/kg, sc administered for 2 weeks. Conditions: time 14.0 day. In kind it is functional, organism-based.
In assay [21] the test system is Mus musculus. The assay can be described thus: Anti-diabesity activity against DIO C57BL/6 mouse assessed as reduction in body weight at 25 nmol/kg, sc administered every 2 days for 3 weeks. It is filed as functional. Conditions: C57BL/6, 504 h, time 21 day.
For assay [22], the target named is T2, Gastrin/cholecystokinin type B receptor (Homo sapiens, UniProt P32239).
T2 sequence (P32239 whole entry): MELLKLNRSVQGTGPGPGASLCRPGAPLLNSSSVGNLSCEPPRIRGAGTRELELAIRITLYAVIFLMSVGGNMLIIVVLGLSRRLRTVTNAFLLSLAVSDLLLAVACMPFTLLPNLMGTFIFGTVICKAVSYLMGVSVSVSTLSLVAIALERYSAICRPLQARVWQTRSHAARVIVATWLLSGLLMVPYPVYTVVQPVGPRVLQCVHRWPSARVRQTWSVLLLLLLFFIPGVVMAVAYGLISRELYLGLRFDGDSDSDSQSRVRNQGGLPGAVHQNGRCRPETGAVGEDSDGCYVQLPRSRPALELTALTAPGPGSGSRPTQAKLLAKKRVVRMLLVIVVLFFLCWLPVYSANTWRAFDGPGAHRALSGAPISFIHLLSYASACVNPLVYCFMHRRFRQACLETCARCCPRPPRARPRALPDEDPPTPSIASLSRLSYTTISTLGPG
The assay can be described thus: Agonist activity at human CCK2R expressed in HEK293 cells assessed as ERK1/2 phosphorylation incubated for 5 mins by AlphaScreen assay. It is filed as functional, cell-based.

Assay [23] has as its system Mus musculus. The assay can be described thus: Anti-diabesity activity against high fat diet-induced DIO C57BL/6 mouse model assessed as decrease in body weight at 25 nmol/kg, sc administered for 2 weeks. Conditions: C57BL/6, 336 h, time 14 day. It is filed as functional.

Active and inactive are the calls of the source. No cut-off for these calls is given here. *1 amine or outer side, *2 acyl side, *3 side chain or, on linkers, in order; H or OH if unused. Where a SMILES comes first, the peptide text is derived from it. [ ]: non-standard residue; d: D form. The star is where a group is joined. ξ: configuration not given here. Phe(4-CH2SO3H) = N[C@@H](Cc1ccc(CS(=O)(=O)O)cc1)C(=O)O; C18 diacid = O=C(O)CCCCCCCCCCCCCCCCC(=O)*; γGlu = O=C(O)[C@H](CCC(=O)[*:2])N[*:1]; NMeF = CN[C@@H](Cc1ccccc1)C(=O)O; dNMeD = CN[C@H](CC(=O)O)C(=O)O; ξpGlu = O=C1CCC(C(=O)O)N1; Nle = CCCC[C@H](N)C(=O)O; AEEA = NCCOCCOCC(=O)O

Usually inhibition in vivo stands for the drop in the measured response relative to a control, in per cent. Broadly, the EC50 is the midpoint of the concentration-response curve. For the compound `CCCC[C@H](NC(=O)[C@H](Cc1ccc(CS(=O)(=O)O)cc1)NC(=O)[C@H](CC(=O)O)NC(=O)COCCOCCNC(=O)COCCOCCNC(=O)CC[C@H](NC(=O)CCCCCCCCCCCCCCCCC(=O)O)C(=O)O)C(=O)NCC(=O)N[C@@H](Cc1c[nH]c2ccccc12)C(=O)N[C@@H](CCCC)C(=O)N(C)[C@H](CC(=O)O)C(=O)N(C)[C@@H](Cc1ccccc1)C(N)=O` ({C18 diacid-γGlu-AEEA-AEEA}-D[Phe(4-CH2SO3H)][Nle]GW[Nle][dNMeD][NMeF]-NH2), the Activity entry in [1] was “Dde”. In addition, the result in [2], in assay [3], in [4], in assay [5], in assay [6] and in assay [8] was Active. For the same compound, the outcome in assay [9], in assay [11], in assay [12], in assay [13], in assay [16] and in [17] was Active. The result in assay [18], in assay [19] and in assay [20] was Active. Moreover, the inhibition in vivo at 0.025 µmol/kg in [7] amounted to 6.1%; in assay [21] it was 9.8%; in assay [23], 7.1%. For the same compound, the inhibition in vivo at 0.1 µmol/kg in assay [10] was found to be 10%. Moreover, the half-maximal effective concentration (EC50) in assay [14] is 0.21 nM; in assay [22], above 100 nM. Further, the inhibition in vivo at 0.01 µmol/kg in assay [15] was 3.9%.
`CC(C)C[C@H](NC(=O)[C@H](Cc1c[nH]c2ccccc12)NC(=O)CNC(=O)[C@H](Cc1ccc(O)cc1)NC(=O)[C@H](C)NC(=O)[C@H](CCC(=O)O)NC(=O)[C@H](CCC(=O)O)NC(=O)[C@H](CCC(=O)O)NC(=O)[C@H](CCC(=O)O)NC(=O)[C@H](CCC(=O)O)NC(=O)[C@H](CC(C)C)NC(=O)[C@H](Cc1c[nH]c2ccccc12)NC(=O)[C@@H]1CCCN1C(=O)CNC(=O)C1CCC(=O)N1)C(=O)N[C@@H](CC(=O)O)C(=O)N[C@@H](Cc1ccccc1)C(N)=O` (stereo not given in full) ([ξpGlu]GPWLEEEEEAYGWLDF-NH2): the results for the EC50 in assay [14] and in assay [22] were above 100 nM and 2.4 nM, respectively.

Values taken from ChEMBL document CHEMBL5143608, “Peptide-based long-acting co-agonists of GLP-1 and cholecystokinin 1 receptors as novel anti-diabesity agents” (Eur J Med Chem, 2022).
